pEC50, pIC50: −log10 of the molar value.

Assay [1] deals with U-87 MG human glioblastoma. Description: U87 MG CCK-8 proliferation assay. It is filed as cell-based. The settings on record: Homo sapiens, U-87 MG, 72 h, U-87 MG cells, read-out: U87MG CCK-8. In short, it runs like this: (§1)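 Lines were maintained according to ATCC guidance. Compounds were then applied as a 3-fold titration from 20 μM to 1.02 nM, and proliferation was measured by CCK-8 absorbance, normalised to DMSO controls minus a no-cell blank.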
(In general: Tetrazolium dyes change colour on reduction, which living cells bring about.)

A further assay deals with T1, HSP90α protein (Homo sapiens, UniProt P07900).
T1 construct: purchased BPS Bioscience #50298
In words: HSP90α-binding FP (BODIPY) assay. The settings on record: FP competition with BODIPY-labeled RNK04010. In short, it runs like this:
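Fluorescence polarization measured competition with N-terminal human HSP90α, using either FITC-geldanamycin or BODIPY-labelled triazolone RNK04010 as tracer (5 nM final each). Compounds were tested in 2.5-fold dilutions from 20 μM to 5.2 nM, with incubation at 25 °C for 120 min (FITC) or 300 min (BODIPY).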

Assay [2] relates to MV-4-11 human acute myeloid leukemia. In words: MV-4-11 CCK-8 proliferation assay. The conditions noted are these: Homo sapiens, MV4-11; MV-4-11 cells, 72 hr. It is filed as cell-based. In short, it runs like this:
as §1

Broadly, the pIC50 is −log10 of the IC50, conventionally taken in molar units. As for `CCOc1cc(N2CCC(C(=O)N3CCN(Cc4ccc(-n5c(O)nnc5-c5cc(C)c(O)cc5O)cc4)CC3)CC2)ccc1Nc1ncc2c(n1)N(S(C)(=O)=O)c1ccccc1C(=O)N2C` [Compound 085, 2-((4-(4-(4-(4-(3-(2,4-dihydroxy-5-methylphenyl)-5-hydroxy-4H-1,2,4-triazol-4-yl)benzyl)piperazine-1-carbonyl)piperidin-1-yl)-2-ethoxyphenyl)amino)-5-methyl-11-(methylsulfonyl)-5,11-dihydro-6H-benzo[e]pyrimido[5,4-b][1,4]diazepin-6-one], the figures for the pEC50 in assay [1] and in assay [2] were 6.00 to 7.00 and above 7.00, respectively. On HSP90α protein, this compound showed a pIC50 of 6.00 to 7.00.
`CCOc1cc(N2CCC(C(=O)N3CCC(CN4CCN(C(=O)CNC(=O)O[C@H]5CC[C@H](Nc6cc(-n7nc(C(F)(F)F)c8c7CC(C)(C)CC8=O)ccc6C(N)=O)CC5)CC4)CC3)CC2)ccc1Nc1ncc2c(n1)N(C)c1ccccc1C(=O)N2C` [Compound 122, (1R,4R)-4-((2-carbamoyl-5-(6,6-dimethyl-4-oxo-3-(trifluoromethyl)-4,5,6,7-tetrahydro-1H-indazol-1-yl)phenyl)amino)cyclohexyl (2-(4-((1-(1-(4-((5,11-dimethyl-6-oxo-6,11-dihydro-5H-benzo[e]pyrimido[5,4-b][1,4]diazepin-2-yl)amino)-3-ethoxyphenyl)piperidine-4-carbonyl)piperidin-4-yl)methyl)piperazin-1-yl)-2-oxoethyl)carbamate]: the pEC50 in assay [1] is below 6.00; in assay [2], 6.00 to 7.00. The compound further showed a pIC50 on HSP90α protein below 6.00.
Turning to `CCOc1cc(N2CCC(C(=O)N3CCC(CN4CCN(CCCOc5ccc(Nc6ccc(-n7nc(C(F)(F)F)c8c7CC(C)(C)CC8=O)cc6C(N)=O)cc5)CC4)CC3)CC2)ccc1Nc1ncc2c(n1)N(S(C)(=O)=O)c1ccccc1C(=O)N2C` [Compound 068, 5-(6,6-dimethyl-4-oxo-3-(trifluoromethyl)-4,5,6,7-tetrahydro-1H-indazol-1-yl)-2-((4-(3-(4-((1-(1-(3-ethoxy-4-((5-methyl-11-(methylsulfonyl)-6-oxo-6,11-dihydro-5H-benzo[e]pyrimido[5,4-b][1,4]diazepin-2-yl)amino)phenyl)piperidine-4-carbonyl)piperidin-4-yl)methyl)piperazin-1-yl)propoxy)phenyl)amino)benzamide], the results for the pEC50 in assay [1] and in assay [2] were below 6.00 and 6.00 to 7.00, respectively. On HSP90α protein, the pIC50 is below 6.00.
Turning to `CCCc1cc(-c2nnc(O)n2-c2ccc(CNC(=O)C3CCN(c4ccc(Nc5ncc6c(n5)N(S(C)(=O)=O)c5ccccc5C(=O)N6C)c(OCC)c4)CC3)cc2)c(O)cc1O` [Compound 074, N-(4-(3-(2,4-dihydroxy-5-propylphenyl)-5-hydroxy-4H-1,2,4-triazol-4-yl)benzyl)-1-(3-ethoxy-4-((5-methyl-11-(methylsulfonyl)-6-oxo-6,11-dihydro-5H-benzo[e]pyrimido[5,4-b][1,4]diazepin-2-yl)amino)phenyl)piperidine-4-carboxamide], the pEC50 in assay [1] is below 6.00; in assay [2], 6.00 to 7.00. Moreover, the pIC50 at HSP90α protein is below 6.00.
As for `CCOc1cc(N2CCC(C(=O)NCc3ccc(-n4c(O)nnc4-c4cc(CC)c(O)cc4O)cc3F)CC2)ccc1Nc1ncc2c(n1)N(S(C)(=O)=O)c1ccccc1C(=O)N2C` [Compound 088, 1-(3-ethoxy-4-((5-methyl-11-(methylsulfonyl)-6-oxo-6,11-dihydro-5H-benzo[e]pyrimido[5,4-b][1,4]diazepin-2-yl)amino)phenyl)-N-(4-(3-(5-ethyl-2,4-dihydroxyphenyl)-5-hydroxy-4H-1,2,4-triazol-4-yl)-2-fluorobenzyl)piperidine-4-carboxamide], the pEC50 in assay [1] is below 6.00; in assay [2] it was 6.00 to 7.00. Further, at HSP90α protein, the pIC50 was 6.00 to 7.00.
Take `CCOc1cc(N2CCC(C(=O)N3CCC(Cc4ccc(CN(C)Cc5ccc(-n6c(C(=O)NCC(F)(F)F)nnc6-c6cc(C(C)C)c(O)cc6O)cc5)cc4)CC3)CC2)ccc1Nc1ncc2c(n1)N(S(C)(=O)=O)c1ccccc1C(=O)N2C` [Compound 076, 5-(2,4-dihydroxy-5-isopropylphenyl)-4-(4-(((4-((1-(1-(3-ethoxy-4-((5-methyl-11-(methylsulfonyl)-6-oxo-6,11-dihydro-5H-benzo[e]pyrimido[5,4-b][1,4]diazepin-2-yl)amino)phenyl)piperidine-4-carbonyl)piperidin-4-yl)methyl)benzyl)(methyl)amino)methyl)phenyl)-N-(2,2,2-trifluoroethyl)-4H-1,2,4-triazole-3-carboxamide]: the pEC50 is below 6.00 in assay [1] and 6.00 to 7.00 in assay [2]. Besides, the pIC50 at HSP90α protein is below 6.00.
For the compound `CCOc1cc(N2CCC(C(=O)N3CCN(Cc4ccc(-n5c(O)nnc5-c5cc(C(C)C)c(O)cc5O)cc4)[C@H](C)C3)CC2)ccc1Nc1ncc2c(n1)N(C)c1ccccc1C(=O)N2C` [Compound 051, (R)-2-((4-(4-(4-(4-(3-(2,4-dihydroxy-5-isopropylphenyl)-5-hydroxy-4H-1,2,4-triazol-4-yl)benzyl)-3-methylpiperazine-1-carbonyl)piperidin-1-yl)-2-ethoxyphenyl)amino)-5,11-dimethyl-5,11-dihydro-6H-benzo[e]pyrimido[5,4-b][1,4]diazepin-6-one], the pEC50 in assay [1] and in assay [2] was above 7.00 each time. On HSP90α protein, the pIC50 is 6.00 to 7.00.
On to `CCOc1cc(N2CCC(C(=O)N3CCC(CN4CCC(Cc5ccc(-n6c(O)nnc6-c6cc(C(C)C)c(O)cc6O)cc5)CC4)CC3)CC2)ccc1Nc1ncc2c(n1)N(C)c1ccccc1C(=O)N2C` [Compound 044, 2-((4-(4-(4-((4-(4-(3-(2,4-dihydroxy-5-isopropylphenyl)-5-hydroxy-4H-1,2,4-triazol-4-yl)benzyl)piperidin-1-yl)methyl)piperidine-1-carbonyl)piperidin-1-yl)-2-ethoxyphenyl)amino)-5,11-dimethyl-5,11-dihydro-6H-benzo[e]pyrimido[5,4-b][1,4]diazepin-6-one], for which the pEC50 in assay [1] and in assay [2] was above 7.00 throughout. On HSP90α protein, this compound had a pIC50 above 7.00.
In the case of `CCOc1cc(N2CCC(C(=O)NCCOCCOc3ccc(Nc4ccc(-n5nc(C(F)(F)F)c6c5CC(C)(C)CC6=O)cc4C(N)=O)cc3)CC2)ccc1Nc1ncc2c(n1)N(S(C)(=O)=O)c1ccccc1C(=O)N2C` [Compound 067, N-(2-(2-(4-((2-carbamoyl-4-(6,6-dimethyl-4-oxo-3-(trifluoromethyl)-4,5,6,7-tetrahydro-1H-indazol-1-yl)phenyl)amino)phenoxy)ethoxy)ethyl)-1-(3-ethoxy-4-((5-methyl-11-(methylsulfonyl)-6-oxo-6,11-dihydro-5H-benzo[e]pyrimido[5,4-b][1,4]diazepin-2-yl)amino)phenyl)piperidine-4-carboxamide], the pEC50 in assay [1] was below 6.00; in assay [2] it was 6.00 to 7.00. This compound also showed a pIC50 on HSP90α protein below 6.00.
`CCOc1cc(N2CCC(C(=O)NCc3ccc(-n4c(O)nnc4-c4cc(C)c(O)cc4O)cc3)CC2)ccc1Nc1ncc2c(n1)N(S(C)(=O)=O)c1ccccc1C(=O)N2C` [Compound 073, N-(4-(3-(2,4-dihydroxy-5-methylphenyl)-5-hydroxy-4H-1,2,4-triazol-4-yl)benzyl)-1-(3-ethoxy-4-((5-methyl-11-(methylsulfonyl)-6-oxo-6,11-dihydro-5H-benzo[e]pyrimido[5,4-b][1,4]diazepin-2-yl)amino)phenyl)piperidine-4-carboxamide]: the pEC50 in assay [1] and in assay [2] was below 6.00 throughout. Moreover, the pIC50 at HSP90α protein is below 6.00.
Regarding `CCCc1cc(-c2nnc(C(=O)NCCN3CCCCC3)n2-c2ccc(CN3CCN(CC4CCN(C(=O)C5CCN(c6ccc(Nc7ncc8c(n7)N(S(C)(=O)=O)c7ccccc7C(=O)N8C)c(OCC)c6)CC5)CC4)CC3)cc2)c(O)cc1O` [Compound 093, 5-(2,4-dihydroxy-5-propylphenyl)-4-(4-((4-((1-(1-(3-ethoxy-4-((5-methyl-11-(methylsulfonyl)-6-oxo-6,11-dihydro-5H-benzo[e]pyrimido[5,4-b][1,4]diazepin-2-yl)amino)phenyl)piperidine-4-carbonyl)piperidin-4-yl)methyl)piperazin-1-yl)methyl)phenyl)-N-(2-(piperidin-1-yl)ethyl)-4H-1,2,4-triazole-3-carboxamide], the pEC50 in assay [1] is below 6.00; in assay [2] it was 6.00 to 7.00. The same compound showed a pIC50 at HSP90α protein above 7.00.
The matching figures for `CCOc1cc(N2CCC(C(=O)N3CCN(Cc4ccc(-n5c(O)nnc5-c5cc(C)c(O)cc5O)cc4)CC3)CC2)ccc1Nc1ncc2c(n1)N(C)c1ccccc1C(=O)N2C` [Compound 048, 2-((4-(4-(4-(4-(3-(2,4-dihydroxy-5-methylphenyl)-5-hydroxy-4H-1,2,4-triazol-4-yl)benzyl)piperazine-1-carbonyl)piperidin-1-yl)-2-ethoxyphenyl)amino)-5,11-dimethyl-5,11-dihydro-6H-benzo[e]pyrimido[5,4-b][1,4]diazepin-6-one]: 6.00 to 7.00, above 7.00 and 6.00 to 7.00.
Taken in the same sequence, the figures for `CCOc1cc(N2CCC(C(=O)N3CCC(N4CCN(Cc5ccc(-n6c(O)nnc6-c6cc(C(C)C)c(O)cc6O)cc5)CC4)CC3)CC2)ccc1Nc1ncc2c(n1)N(S(C)(=O)=O)c1ccccc1C(=O)N2C` [Compound 064, 2-((4-(4-(4-(4-(4-(3-(2,4-dihydroxy-5-isopropylphenyl)-5-hydroxy-4H-1,2,4-triazol-4-yl)benzyl)piperazin-1-yl)piperidine-1-carbonyl)piperidin-1-yl)-2-ethoxyphenyl)amino)-5-methyl-11-(methylsulfonyl)-5,11-dihydro-6H-benzo[e]pyrimido[5,4-b][1,4]diazepin-6-one] were above 7.00, above 7.00 and above 7.00.
